Key:
GlnA1 [1] = molecular target: T1, GlnA1 (Rhodopseudomonas palustris, UniProt Q6N5K7); test: gamma-glutamylhydroxamate formation, absorbance at […] nm; format: biochemical; details: 10 mM ATP, 40 mM MgSO4, 10 mM cysteine, 1 mM EDTA, pH 7.5, 30 °C, deadenylylated enzyme from nitrogen-limited cells
T1 construct: gene glnA; GSI dodecamer; adenylylated at Tyr398 when made in nitrogen-replete medium

GlnA1 [2] = molecular target: T2, GlnA1 (Rhodopseudomonas palustris, UniProt Q6N5K7, Y398A); test: as above; format: biochemical; details: 10 mM ATP, 40 mM hydroxylamine, 40 mM MgSO4, 10 mM cysteine, 1 mM EDTA, pH 7.5, 30 °C; enzyme from LB-grown cells
T2 construct: gene glnA; GSI dodecamer; adenylylated at Tyr398 when made in nitrogen-replete medium
T2 sequence (Q6N5K7 entry or part of it Y398A): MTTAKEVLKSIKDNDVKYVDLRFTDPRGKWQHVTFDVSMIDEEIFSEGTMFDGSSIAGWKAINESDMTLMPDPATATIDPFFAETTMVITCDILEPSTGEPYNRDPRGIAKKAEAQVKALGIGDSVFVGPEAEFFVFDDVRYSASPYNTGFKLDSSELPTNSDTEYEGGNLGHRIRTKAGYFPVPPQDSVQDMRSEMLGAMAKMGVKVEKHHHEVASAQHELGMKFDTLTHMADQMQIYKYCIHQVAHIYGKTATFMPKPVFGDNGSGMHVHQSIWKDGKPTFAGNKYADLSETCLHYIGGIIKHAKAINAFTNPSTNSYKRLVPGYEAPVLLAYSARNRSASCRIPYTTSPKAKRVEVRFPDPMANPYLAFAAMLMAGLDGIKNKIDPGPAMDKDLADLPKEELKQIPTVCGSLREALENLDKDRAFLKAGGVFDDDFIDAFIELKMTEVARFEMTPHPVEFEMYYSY

T1 sequence (Q6N5K7 entry or part of it): as the sequence (Q6N5K7 entry or part of it Y398A) above, with A398Y counted along it

Structure (SMILES)	specific activity (GlnA1 [1]; 10 mM L-glutamate)	specific activity (GlnA1 [1]; 40 mM hydroxylamine)	specific activity (GlnA1 [2])
NO [hydroxylamine]	A large proportion of GlnA1 was deadenylated via mass spectrometric analysis		
N[C@@H](CCC(=O)O)C(=O)O [l-glutamate]		A large proportion of GlnA1 was deadenylated via mass spectrometric analysis	GlnA1^Y398A purified from E. coli cells that were grown in LB medium showed a significantly

— publication PMC10100968, “The Role of Glutamine Synthetase in Regulating Ammonium Assimilation and Iron-Only Nitrogenase Expression in a Photosynthetic Diazotroph” (Microbiology Spectrum, 2023)
